Laboratory results reported in patent US20070021495A1, “SULFONAMIDES AS SELECTIVE ESTROGEN RECEPTOR” (priority 2005, published 2007).
“Also recorded” adds a separate entry of the source. Read-outs that look alike come from different tables or passages of the source.

Key:
[1] = biological target: T1, purified full-length human ERalpha (Homo sapiens, UniProt P03372); assay: Competitive radiometric binding assay, relative binding affinity (RBA), ERalpha; details: normalized to estradiol set at 100%; [3H]estradiol 10 nM tracer, 18-24 h at 0° C
T1 construct: purified full-length human ERalpha and ERbeta receptors purchased from Pan Vera (Madison, Wis.); purchased Pan Vera (Madison, Wis.)
T1 sequence (P03372 1-595): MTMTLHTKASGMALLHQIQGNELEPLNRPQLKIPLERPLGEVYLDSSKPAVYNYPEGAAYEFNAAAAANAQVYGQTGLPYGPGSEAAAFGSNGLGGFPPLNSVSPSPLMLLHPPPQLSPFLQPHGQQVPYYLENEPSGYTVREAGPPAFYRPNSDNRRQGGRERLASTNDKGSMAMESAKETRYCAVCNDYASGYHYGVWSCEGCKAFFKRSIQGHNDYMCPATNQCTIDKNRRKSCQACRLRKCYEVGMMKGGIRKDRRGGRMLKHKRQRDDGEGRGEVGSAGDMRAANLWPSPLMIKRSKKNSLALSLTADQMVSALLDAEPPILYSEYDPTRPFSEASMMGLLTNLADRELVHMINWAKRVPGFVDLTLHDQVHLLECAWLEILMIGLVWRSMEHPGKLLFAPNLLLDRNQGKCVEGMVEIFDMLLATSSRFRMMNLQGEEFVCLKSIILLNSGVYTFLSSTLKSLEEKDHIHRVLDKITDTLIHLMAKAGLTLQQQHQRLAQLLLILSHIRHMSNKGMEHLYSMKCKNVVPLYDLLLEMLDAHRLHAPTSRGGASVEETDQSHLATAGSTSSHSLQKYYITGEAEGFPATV
Experimental: Incubations were for 18-24 h at 0° C. Hydroxyapatite (BioRad, Hercules, Calif.) was used to absorb the receptor-ligand complexes and free ligand was washed away. […] The values given are the average±range or SD of two to three independent determinations.

[2] = biological target: T2, purified full-length human ERbeta (Homo sapiens, UniProt Q92731); assay: Competitive radiometric binding assay, relative binding affinity (RBA), ERbeta; details: for ER beta selectivity: binding selectivity ER beta over ER alpha; for Relative binding affinity (RBA) ERβ: normalized to estradiol set at 100%, [3H]estradiol 10 nM tracer, 18-24 h at 0° C; for ERβ/ERα (ratio of RBAs): ratio of RBA ERβ to RBA ERα
T2 construct: purified full-length human ERalpha and ERbeta receptors purchased from Pan Vera (Madison, Wis.); purchased Pan Vera (Madison, Wis.)
T2 sequence (Q92731 whole entry): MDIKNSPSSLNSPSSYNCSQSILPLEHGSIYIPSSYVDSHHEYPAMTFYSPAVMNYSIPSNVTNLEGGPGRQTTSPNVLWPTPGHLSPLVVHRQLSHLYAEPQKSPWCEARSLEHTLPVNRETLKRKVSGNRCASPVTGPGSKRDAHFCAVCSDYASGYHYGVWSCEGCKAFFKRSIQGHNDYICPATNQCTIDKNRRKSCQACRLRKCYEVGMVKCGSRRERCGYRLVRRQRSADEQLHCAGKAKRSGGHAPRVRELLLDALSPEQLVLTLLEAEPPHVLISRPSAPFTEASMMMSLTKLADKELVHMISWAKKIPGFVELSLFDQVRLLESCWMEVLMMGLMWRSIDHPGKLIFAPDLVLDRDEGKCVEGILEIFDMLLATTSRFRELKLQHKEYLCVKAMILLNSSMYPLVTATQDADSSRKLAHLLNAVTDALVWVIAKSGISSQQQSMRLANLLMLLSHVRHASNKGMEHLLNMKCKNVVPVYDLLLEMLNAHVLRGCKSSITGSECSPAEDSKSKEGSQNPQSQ
Excerpt: The relative binding affinities (RBAs) of potential ER ligands can be measured using purified full length human ERalpha and ERbeta receptors in a competitive radiometric binding assay, according to published procedures (Carlson, K. E.; Choi, I.; Gee, A,; Katzenellenbogen, B. S.; Katzenellenbogen, J. A. Altered ligand binding properties and enhanced stability of a constitutively active estrogen receptor: evidence that an open pocket conformation is required for ligand interaction. Biochemistry 1997, 36, 14897-14905; Katzenellenbogen, J. A.; Johnson, H. J., Jr.; Myers, H. N. Photoaffinity labels for estrogen binding proteins of rat uterus. Biochemistry 1973, 12, 4085-4092) as described in the Examples.
Relative binding affinities reported herein were determined by a competitive radiometric binding assay as previously described (Carlson, K. E.; Choi, I.; Gee, A.; Katzenellenbogen, B. S.; Katzenellenbogen, J. A. Altered ligand binding properties and enhanced stability of a constitutively active estrogen receptor: evidence that an open pocket conformation is required for ligand interaction. Biochemistry 1997, 36, 14897-14905; Katzenellenbogen, J. A.; Johnson, H. J., Jr.; Myers, H. N. Photoaffinity labels for estrogen binding proteins of rat uterus. Biochemistry 1973, 12, 4085-4092.) [3H]estradiol (10 nM) was used as tracer ([6,7-3H]estra-1,3,5,(10)triene-3,17-β-diol, 51-53 Ci/mmol, Amersham Biosciences, Piscataway, N.J.), and purified full-length human ERalpha and ERbeta receptors purchased from Pan Vera (Madison, Wis.). Incubations were for 18-24 h at 0° C. Hydroxyapatite (BioRad, Hercules, Calif.) was used to absorb the receptor-ligand complexes and free ligand was washed away. The binding affinities are expressed as relative binding affinity (RBA) values with the RBA of estradiol set to 100%. The values given are the average±range or SD of two to three independent determinations. […]

ERβ = ERβ (Homo sapiens, UniProt Q92731); assay: Antagonism of estrogen-induced 2x-pS2-ERE-Luc reporter expression in HEC-1 cells transfected with ERβ; details: ligand + E2 at 1 nM, 24 hours, luciferase, pS2 promoter
Chain of ERβ (Q92731 whole entry, species assumed): as the sequence (Q92731 whole entry) above
Experimental: (§1) Values are expressed as % of E2 activity at 1 nM and are the mean of duplicate determinations.
(§2) The data presented was measured using a reporter gene under the control of the pS2 promoter. […] Human endometrial cancer (HEC-1) cells were maintained in minimum essential medium (MEM) plus phenol red supplemented with 5% calf serum and 5% fetal calf serum. […] The cells were incubated at 37° C. in a 5% CO2-containing incubator for 5 h. The medium was then replaced with fresh improved MEM supplemented with 5% CDCS plus the desired concentrations of ligand. Cells were harvested 24 h later.

ERα = biological target: T3, ERα (Homo sapiens, UniProt P03372); assay: Antagonism of estrogen-induced 2x-pS2-ERE-Luc reporter expression in HEC-1 cells transfected with ERα; details: ligand + E2 at 1 nM, 24 hours, luciferase, pS2 promoter
T3 sequence (P03372 1-595): T1 sequence (P03372 1-595)
Experimental: as §1, §2

[3] = tested on: U2-OS cells stably expressing either ERα or ERβ; assay: Endogenous gene expression (cystatin D, GREB1 mRNA, quantitative PCR) in U2-OS cells stably expressing ERα or ERβ; details: 24 hours, mRNA by quantitative PCR
Experimental: Expression levels of cystatin D (A and B) or of GREB1 (C and D) mRNA were determined by quantitative PCR methods.
More specifically real-time PCR was carried out on the indicated genes to evaluate mRNA levels of ER alpha or ER beta in U2-OS stably transfected cells. […] One microgram of total RNA from each sample was reverse transcribed in a total volume of 20 μl using 200 U reverse transcriptase, 50 pmol random hexamers, and 1 mM deoxynucleotide triphosphates (New England Biolabs, Beverly, Mass.). The resulting cDNA was then diluted to a total volume of 100 μl. Each real-time PCR consisted of 5 μl of diluted reverse transcription product, 1× SYBR Green PCR Master Mix (Applied Biosystems, Foster City, Calif.), and 50 nM of forward and reverse primers. Reactions were carried out in an ABI Prism 7700 Sequence Detection System (Applied Biosystems) for 40 cycles (95 C for 15 sec, 60 C for 1 min) after an initial 10-min incubation at 95 C. The FC in expression was calculated using the DDCt comparative threshold cycle method with the ribosomal protein 36B4 mRNA as an internal control. Gene expression is normalized to an endogenous reference gene (36B4) and the FC in gene expression is then determined relative to the vehicle-treated control.

ovariectomized mice = details: cited from earlier work
Candida albicans = details: cited from earlier work

Relative binding affinity (RBA) ERα [1] [%] | Relative binding affinity (RBA) ERβ [2] [%] | ERβ/ERα (ratio of RBAs) [2] | Structure (SMILES) | further results
0.006 | 0.97 | 162 | CCC(C)N(c1ccc(O)cc1)S(=O)(=O)c1ccc(O)cc1 (racemic) [Compound 20h (Racemic), N-sec-Butyl-4-hydroxy-N-(4-hydroxy-phenyl)-benzenesulfonamide] | ER beta selectivity [2]: 162 fold
0.009 | 0.058 | 6.4 | CN(c1ccc(O)cc1)S(=O)(=O)c1ccc(O)cc1 [Compound 20a, 4-Hydroxy-N-(4-hydroxy-phenyl)-N-methyl-benzenesulfonamide] | 
0.007 | 0.28 | 40 | CCN(c1ccc(O)cc1)S(=O)(=O)c1ccc(O)cc1 [Compound 20b, N-Ethyl-4-hydroxy-N-(4-hydroxy-phenyl)-benzenesulfonamide] | 
0.026 | 2.56 | 98 | CCCN(c1ccc(O)cc1)S(=O)(=O)c1ccc(O)cc1 [Compound 20c, 4-Hydroxy-N-(4-hydroxy-phenyl)-N-propyl-benzenesulfonamide] | Antagonism on estrogen-induced gene expression through ERβ (ERβ; listed as FS-2): do not act as antagonists; also recorded: lack of antagonism; Antagonism on estrogen-induced gene expression through ERα (ERα; listed as FS-2): do not act as antagonists; also recorded: lack of antagonism; ER beta selectivity [2]: 98 fold; Potency in endogenous gene regulation compared to the dose response of estradiol [3]: preferential potency through ERbeta; Regulation of endogenous genes (cystatin D and GREB1) [3]: preferential regulation through ERbeta
0.023 | 1.15 | 50 | CCCCN(c1ccc(O)cc1)S(=O)(=O)c1ccc(O)cc1 [Compound 20d, N-Butyl-4-hydroxy-N-(4-hydroxy-phenyl)-benzenesulfonamide] | 
0.013 | 0.14 | 11 | CC(C)CN(c1ccc(O)cc1)S(=O)(=O)c1ccc(O)cc1 [Compound 20e, N-Isobutyl-4-hydroxy-N-(4-hydroxy-phenyl)-benzenesulfonamide] | 
0.047 | 0.60 | 13 | CCCCCN(c1ccc(O)cc1)S(=O)(=O)c1ccc(O)cc1 [Compound 20f, 4-Hydroxy-N-(4-hydroxy-phenyl)-N-pentyl-benzenesulfonamide] | 
0.012 | 0.22 | 18 | CC(C)N(c1ccc(O)cc1)S(=O)(=O)c1ccc(O)cc1 [Compound 20g, N-Isopropyl-4-hydroxy-N-(4-hydroxy-phenyl)-benzenesulfonamide] | 
0.013 | 1.3 | 100 | CCCC(C)N(c1ccc(O)cc1)S(=O)(=O)c1ccc(O)cc1 (centres unmarked) [Compound 20i, 4-Hydroxy-N-(4-hydroxy-phenyl)-N-(1-methyl-butyl)-benzenesulfonamide] | 
0.018 | 0.11 | 6.1 | CCC(CC)N(c1ccc(O)cc1)S(=O)(=O)c1ccc(O)cc1 [Compound 20j, N-(1-Ethyl-propyl)-4-hydroxy-N-(4-hydroxy-phenyl)-benzenesulfonamide] | 
0.020 | 0.17 | 8.5 | O=S(=O)(c1ccc(O)cc1)N(CC(F)(F)F)c1ccc(O)cc1 [Compound 20k, 4-Hydroxy-N-(4-hydroxy-phenyl)-N-(2,2,2-trifluoro-ethyl)-benzenesulfonamide] | 
0.006 | 1.27 | 212 | O=S(=O)(c1ccc(O)cc1)N(CCC(F)(F)F)c1ccc(O)cc1 [Compound 20l, 4-Hydroxy-N-(4-hydroxy-phenyl)-N-(3,3,3-trifluoro-propyl)benzenesulfonamide] | Antagonism on estrogen-induced gene expression through ERβ (ERβ; listed as FS-5): do not act as antagonists; also recorded: lack of antagonism; Antagonism on estrogen-induced gene expression through ERα (ERα; listed as FS-5): do not act as antagonists; also recorded: lack of antagonism; ER beta selectivity [2]: 212 fold; Potency in endogenous gene regulation compared to the dose response of estradiol [3]: preferential potency through ERbeta; Regulation of endogenous genes (cystatin D and GREB1) [3]: preferential regulation through ERbeta
0.011 | 0.254 | 23 | CCCN(c1ccc(O)c(F)c1)S(=O)(=O)c1ccc(O)cc1 [Compound 24a, N-(3-Fluoro-4-hydroxy-phenyl)-4-hydroxy-N-propyl-benzenesulfonamide] | 
0.005 | 0.038 | 7.6 | CCCN(c1ccc(O)c(Cl)c1)S(=O)(=O)c1ccc(O)cc1 [Compound 24b, N-(3-Chloro-4-hydroxy-phenyl)-4-hydroxy-N-propyl-benzenesulfonamide] | 
0.009 | 0.178 | 20 | O=S(=O)(c1ccc(O)cc1)N(CCC(F)(F)F)c1ccc(O)c(F)c1 [Compound 28a, N-(3-Fluoro-4-hydroxy-phenyl)-4-hydroxy-N-(3,3,3-trifluoro-propyl)-benzenesulfonamide] | 
0.003 | 0.023 | 7.7 | O=S(=O)(c1ccc(O)cc1)N(CCC(F)(F)F)c1ccc(O)c(Cl)c1 [Compound 28b, N-(3-Chloro-4-hydroxy-phenyl)-4-hydroxy-N-(3,3,3-trifluoro-propyl)-benzenesulfonamide] | 
 |  |  | COc1ccc(NS(=O)(=O)c2ccc(OC)cc2)cc1 [compound II, p-methoxybenzenesulfon-p-anisidide] | percentage of animals which responded (ovariectomized mice; dose 50 micrograms): 100%; Activity against Candida albicans (Candida albicans): some activity
 |  |  | COc1ccc(S(=O)(=O)N(c2ccccc2)c2ccccc2)cc1 [compound VIII] | percentage of animals which responded (ovariectomized mice; dose 250 micrograms): 60%
